Values joined by “and” are separate entries in the source; they are usually repeats but may differ in a detail not shown here. Equal values may be shown once.
What was measured:
[1] = system: F. nucleatum (−); experiment: porfimer sodium aPDT, 48 hour biofilm culture; type: cell-based, Fusobacterium nucleatum; settings: 630 nm, kill at 100 J/cm2 (light dose 75-100 J/cm2), porfimer sodium 250 μg/mL
Procedure: (§1) Bacteria were routinely cultured using tryptic soy broth or agar at 37° C. in a 5% CO2 incubator. Bacteria were isolated and suspended with 0.9% NaCl to an Optical Density (OD) of 0.1 taken at 630 nm, to generate the inoculum used for either planktonic or biofilm assays.
The colony forming units (CFU) per mL of the starting inoculum for every experiment was determined by dilution plating. Control samples were exposed to laser at 630 nm in the absence of porfimer sodium, porfimer sodium in the absence of laser exposure, or in saline alone in the absence of porfimer sodium and 630 nm laser light. All experimental samples were dilution plated to enumerate viable CFU's. Three independent replicates were performed for each reaction condition per strain per assay. […]
(§2) Bacteria were exposed to 630 nm laser light via a fiber optic with a lens affixed to the distal end to provide a uniform diverging light field. […] Power output of the laser was measured using a UDT/Gamma Scientific 371 optical power meter and an integrating sphere. […]
(§3) Biofilms were formed on glass coupons in culture dishes containing a bacterial inoculum for 48 hours under conditions specific to the strain. […] Power output of the laser was measured using a UDT/Gamma Scientific 371 optical power meter and an integrating sphere. […]

[2] = system: planktonic and biofilm bacterial populations; experiment: porfimer sodium photodynamic therapy in vitro, overall summary; type: cell-based
Procedure: This study evaluated the bactericidal efficacy of porfimer sodium based photodynamic therapy against standard and antibiotic resistant bacterial strains in planktonic and biofilm cultures. The primary efficacy endpoint was the overall cell kill analysis as determined by the enumeration of viable colony forming assays post PDT treatments as analyzed using the unpaired students two-tailed t test on log transformed data.
Planktonic cultures were prepared by adding bacteria to glass vials with saline and porfimer sodium to a final concentration ranging from 125 μg/ml to 150 μg/ml.
Biofilms were formed on glass coupons in culture dishes containing a bacterial inoculum for 48 hours under conditions specific to the strain. The glass coupon attached biofilms were then rinsed with saline, by dipping method, prior to the administration of the porfimer sodium. The biofilms were incubated in the dark for 15-30 minutes with a reconstituted saline solution of porfimer sodium at final concentrations ranging from 75 μg/ml-250 μg/ml. The porfimer sodium treated biofilms were then exposed to light doses at 630 nm light of 50-200 J/cm^2 at a power density of 150 milliwatts per cm^2. […] Power output of the laser was measured using a UDT/Gamma Scientific 371 optical power meter and an integrating sphere. […]

[3] = system: F. nucleatum (−); experiment: porfimer sodium aPDT, planktonic culture; type: cell-based, Fusobacterium nucleatum; settings: 630 nm, 50 J/cm2, porfimer sodium 125 μg/mL
Procedure: as §1
(§4) Experiments using planktonic cultures were carried out using M. catarrhalis, as a standard for further comparisons and to determine the effective drug concentration, porfimer sodium incubation time and light dose parameters which would provide an effective cell kill at the level of 5-7 logs. Once determined the experiments were repeated for all other bacterial strains examined.
(§5) The colony forming units (CFU) per mL of the starting inoculum for every experiment was determined by dilution plating. […]
as §2, §3

[4] = system: Y. intermedia (−); experiment: porfimer sodium aPDT, planktonic culture; type: cell-based, Yersinia intermedia; settings: 630 nm, 200 J/cm2, porfimer sodium 125 μg/mL
Procedure: as §1, §4, §5, §2, §3

[5] = system: MRSA (+); experiment: porfimer sodium aPDT, planktonic culture; type: cell-based, methicillin-resistant Staphylococcus aureus; settings: 630 nm, 200 J/cm2, porfimer sodium 125 μg/mL
Procedure: as §1, §4, §5, §2, §3

[6] = system: S. enterica (−); experiment: porfimer sodium aPDT, planktonic culture; type: cell-based, Salmonella enterica; settings: 630 nm, 200 J/cm2, porfimer sodium 125 μg/mL
Procedure: as §1, §4, §5, §2, §3

[7] = system: S. aureus (+); experiment: porfimer sodium aPDT, planktonic culture; type: cell-based, Staphylococcus aureus; settings: 630 nm, 200 J/cm2, porfimer sodium 125 μg/mL
Procedure: as §1, §4, §5, §2, §3

[8] = conventional reconstituted porfimer sodium, comparison statement; cited from earlier work
[9] = system: Moraxella catarrhalis; experiment: abraded skin wounds, culture swabs (Example 3); type: in vivo, Yorkshire pigs
From the text: (§6) On Day −2 of the study, pigs were anesthetized and the skin aseptically prepared. Superficial wounds were created using the tape strip method until punctate bleeding was observed. Also on Day −2, eight wounds per pig were inoculated with one of three bacterial cultures (Haemophilus influenza, Moraxella catarrhalis, or Staphylococcus aureus) at a concentration of 10^7-10^8 CFUs per mL. There were two control sites on each side. […] The wounds were covered, analgesia in the form of buprenorphine (IM, 0.03 mg/kg) was provided, and the animals were recovered from anesthesia.
(§7) On Day 0, culture swabs were collected from each wound prior to dosing. Six wounds per pig were treated with the test article and the laser light treatment. Culture swabs were collected from the test wounds 1 hour following laser light treatment and the animals were recovered from anesthesia. On Day 1, culture swabs were collected from the treated wounds and two wounds per pig were treated a second time with the test article and the laser light treatment. Culture swabs were collected from these test wounds 1 hour following laser light treatment and the animals were recovered from anesthesia. On Day 2, culture swabs were collected from each wound just prior to euthanasia.
(§8) Porfimer sodium administration: to prepare the test article, 75 mg of porfimer sodium was reconstituted with the currently FDA approved method of 31.8 mL of 0.9% sodium chloride, resulting in a stock solution of 2.5 mg/mL. Due to concerns about stability of the solution, the solution was used immediately. A 10 ml solution at a concentration of 0.3 mg/ml (300 mcg/ml), in 0.9% Sodium Chloride Injection (USP) was prepared. 300 μg of porfimer sodium was applied as a saline solution to infected wounds (except controls) and incubated for 30 minutes prior to activation. The sites were exposed to a 630 nm laser light for up to 20 minutes. The light source, a 630PDT laser. Each wound was exposed to 200 J/cm^2.

[10] = system: Haemophilus influenza; experiment: abraded skin wounds, culture swabs (Example 3); type: in vivo, Yorkshire pigs
From the text: as §6, §7, §8

[11] = system: Staphylococcus aureus; experiment: abraded skin wounds, culture swabs (Example 3); type: in vivo, Yorkshire pigs; settings: for Log CFU/site, Sa: sites 2, 7: hydrogel formulation, treated twice (LPT)
From the text: as §6, §7, §8

[12] = 300 μg porfimer sodium, 30 minutes, 630 nm 200 J/cm^2

Substance: porfimer sodium
- Rate of kill [1]: 3Log
- log reductions in bacterial loads [2]: 5-6 log
- reduction in bacterial loads [2]: > 99%
- Rate of kill [3]: 3Log
- Rate of kill [4]: 7Log
- Rate of kill [5]: >6Log
- Rate of kill [6]: 6Log
- Rate of kill [7]: >7Log
- time stable when reconstituted with saline [8]: 24 h
- antimicrobial activity when applied to inoculated wounds [9, 12]: did not provide antimicrobial activity
- Log CFU/site, Mc ([9]; sites 3, 8: porfimer sodium in saline, treated once (LPO), day 2, terminal): 3.1 × 10^6 Log CFU/site and 3.0 × 10^4 Log CFU/site
- antimicrobial activity when applied to inoculated wounds [10, 12]: did not provide antimicrobial activity
- Log CFU/site, Hi ([10]; sites 1, 6: hydrogel formulation, treated once (LPO), day 1, 24 h post tx): 3.0 × 10^5 Log CFU/site
- Log CFU/site, Hi ([10]; sites 2, 7: hydrogel formulation, treated twice (LPT), day 0, 1 h-post tx): 1.3 × 10^4 Log CFU/site and 1.2 × 10^2 Log CFU/site
- Log CFU/site, Hi ([10]; sites 2, 7: hydrogel formulation, treated twice (LPT), day 1, pre 2nd tx): 2.0 × 10^4 Log CFU/site and 2.3 × 10^3 Log CFU/site
- antimicrobial activity when applied to inoculated wounds [11, 12]: did not provide antimicrobial activity
- Log CFU/site, Sa ([11]; day 1, 1 h-post 2nd tx): 2.1 × 10^5 Log CFU/site and 2.2 × 10^4 Log CFU/site
- Log CFU/site, Sa ([11]; day 2, terminal): 1.2 × 10^5 Log CFU/site and 1.3 × 10^6 Log CFU/site

Reference: patent US12090204B2, “Photodynamic therapy compositions and methods of use thereof” (Pinnacle Biologics, Inc., priority 2020, dated 2024)
